Measurements: US11672795B2, “Compositions and methods for treating pulmonary vascular disease” (UNIVERSITY OF PITTSBURGH-OF THE COMMONWEALTH SYSTEM OF …, priority 2016, dated 2023)

Test system: GLS1
Assay: Targeted LC-MS/MS of intracellular metabolites in PAECs on soft or stiff matrix with GLS inhibitors
Type: cell-based, human
Details: stiff matrix, BPTES 10 μM, DON 5 μM, C968 10 μM
Description: HEK293T cells (American Type Culture Collection) were cultivated in DMEM containing 10% fetal bovine serum (FBS). Primary human pulmonary arterial endothelial cells (PAECs) were grown in EGM-2 cell culture media (Lonza), and experiments were performed at passages 3 to 6. Primary human pulmonary arterial smooth muscle cells (PASMCs) were cultured in SmGM-2 cell culture media (Lonza), and experiments were performed at passages 3 to 9. Inhibitors of GLS1 (2, 3): BPTES (Bis-2-(5-phenylacetamido-1,3,4-thiadiazol-2-yl)ethyl sulphide), DON (6-Diazo-5-oxo-L-norleucine), and C968 (Glutaminase Inhibitor, Compound 968, 5-(3-Bromo-4-(dimethylamino)phenyl)-2,2-dimethyl-2,3,5,6-tetrahydrobenzo[a]phenanthridin-4(1H)-one) were purchased from Sigma-Aldrich and used at concentration of 10 μM, 5 μM and 10 μM respectively. Glutamate was purchased from Sigma Aldrich and used at concentration of 2 mM. Aspartate was purchased from Sigma Aldrich and used at concentration of 10 mM.
Metabolite extraction was performed essentially as described with minor modifications (35). Briefly, metabolites were extracted from cultured cells and CD31+ cells on dry ice using 80% aqueous methanol pre-cooled at −80° C. Metabolites were extracted from plasma pre-cleared by centrifugation at 20,000×g for 10 min at 4° C. Supernatants were extracted with four volumes of 100% methanol pre-cooled at −80° C. for four hours at −80° C. An internal standard, [^13C4]-2-oxoglutarate (Cambridge Isotope Laboratories) was added during metabolite extraction. Insoluble material from both cell and plasma extractions was removed by centrifugation at 20,000×g for 15 min at 4° C. The supernatant was analysed by targeted LC-MS/MS as previously described (36). Metabolites were separated using a ZIC-HILIC stationary phase (150 mm×2.1 mm×[…]; Merck). The MS parameters were optimized using a glutamine standard solution. Monitored mass transitions were 87>87 (pyruvate), 115>73+99 (succinate), 132>88 (aspartate), 145>101 (20G), […] (glutamine), 146>128 (glutamate), and 149>105 ([^13C4]-20G). Mass transitions and retention time windows were confirmed by the analysis of neat and matrix-spiked standards. Peak areas were quantified by Xcalibur Software (Thermo) and manually reviewed.
To determine whether GLS1 is critical for stiffness-induced and YAP/TAZ-dependent glutaminolysis, PAECs were cultivated in soft or stiff matrix, and exposed to known inhibitors of two isoforms of GLS1 (KGA and GAC), BPTES (Bis-2-(5-phenylacetamido-1,3,4-thiadiazol-2-yl)ethyl sulphide), DON (6-Diazo-5-oxo-L-norleucine), or CB-968 (glutaminase inhibitor, compound 968, C-968) (FIG. 3A-C) or siRNA (si-GLS; FIG. 3D-G). As quantified by LC-MS/MS, inhibition of GLS in PAECs blunted the stiffness-induced processes of glutamine consumption, glutamate production, and aspartate production (FIGS. 3A and E). […] Similar alterations of metabolic activity were observed when inhibiting GLS1 in PASMCs (data not shown).

CN(C)c1ccc(C2Nc3ccc4ccccc4c3C3=C2C(=O)CC(C)(C)C3)cc1Br (centres unmarked) [C968, 5-(3-Bromo-4-(dimethylamino)phenyl)-2,2-dimethyl-2,3,5,6-tetrahydrobenzo[a]phenanthridin-4(1H)-one]
alterations of metabolite expression in stiff matrix (stiffness-induced glutamine consumption, glutamate production, aspartate production): blunted
lactate/pyruvate ratio (glycolysis): decreased
